{"source": "patent US8192962B2", "about": "“Processes for detecting toxic substances” (Daikin Industries, Ltd., priority 2001, dated 2012)", "tested_on": "Unknown protein yeast genes", "assay": "DNA chip mRNA expression in yeast, unknown protein yeast genes (Table 1)", "format": "cell-based, Saccharomyces cerevisiae S288C", "outline": "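Expression change after 2 h toxicant exposure (growth-inhibiting, sub-lethal) of log-phase S. cerevisiae S288C at 25° C. Oligo-dT-purified mRNA was labeled with Cy3-dUTP or Cy5-dUTP and hybridized >12 h at 65° C. to a genome-wide chip; ratio of scanned fluorescence to control.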", "data": [{"molecule": "C[S+](C)[O-]", "note": "[(15), dimethylsulfoxide]", "values": [{"measurement": "The level of expressed mRNA in the presence of chemical substance/The level of expressed mRNA in the absence of chemical substance", "setting": "yeast gene YAL018C", "result": 6.9}, {"measurement": "The level of expressed mRNA in the presence of chemical substance/The level of expressed mRNA in the absence of chemical substance", "setting": "yeast gene YAL034C", "result": 1.4}, {"measurement": "The level of expressed mRNA in the presence of chemical substance/The level of expressed mRNA in the absence of chemical substance", "setting": "yeast gene YAR031W", "result": 0.9}, {"measurement": "The level of expressed mRNA in the presence of chemical substance/The level of expressed mRNA in the absence of chemical substance", "setting": "yeast gene YAR064W", "result": 1.9}, {"measurement": "The level of expressed mRNA in the presence of chemical substance/The level of expressed mRNA in the absence of chemical substance", "setting": "yeast gene YBL048W", "result": 4.1}, {"measurement": "The level of expressed mRNA in the presence of chemical substance/The level of expressed mRNA in the absence of chemical substance", "setting": "yeast gene YBL107C", "result": 1.4}, {"measurement": "The level of expressed mRNA in the presence of chemical substance/The level of expressed mRNA in the absence of chemical substance", "setting": "yeast gene YBR012C", "result": 1.1}, {"measurement": "The level of expressed mRNA in the presence of chemical substance/The level of expressed mRNA in the absence of chemical substance", "setting": "yeast gene YBR062C", "result": 0.7}, {"measurement": "The level of expressed mRNA in the presence of chemical substance/The level of expressed mRNA in the absence of chemical substance", "setting": "yeast gene YBR101C, incubated two hours with substance", "result": 0.5}, {"measurement": "The level of expressed mRNA in the presence of chemical substance/The level of expressed mRNA in the absence of chemical substance", "setting": "yeast gene YBR287W", "result": 1.3}, {"measurement": "The level of expressed mRNA in the presence of chemical substance/The level of expressed mRNA in the absence of chemical substance", "setting": "yeast gene YCR013C", "result": 1.6}, {"measurement": "The level of expressed mRNA in the presence of chemical substance/The level of expressed mRNA in the absence of chemical substance", "setting": "yeast gene YDL027C", "result": 1.4}, {"measurement": "The level of expressed mRNA in the presence of chemical substance/The level of expressed mRNA in the absence of chemical substance", "setting": "yeast gene YDL110C", "result": 1.3}, {"measurement": "The level of expressed mRNA in the presence of chemical substance/The level of expressed mRNA in the absence of chemical substance", "setting": "yeast gene YDL169C", "result": 2.2}, {"measurement": "The level of expressed mRNA in the presence of chemical substance/The level of expressed mRNA in the absence of chemical substance", "setting": "yeast gene YDL222C, incubated two hours with chemical substance", "result": 7.1}, {"measurement": "The level of expressed mRNA in the presence of chemical substance/The level of expressed mRNA in the absence of chemical substance", "setting": "yeast gene YDR070C", "result": 2.1}, {"measurement": "The level of expressed mRNA in the presence of chemical substance/The level of expressed mRNA in the absence of chemical substance", "setting": "yeast gene YDR078C, incubated two hours with substance", "result": 0.5}, {"measurement": "The level of expressed mRNA in the presence of chemical substance/The level of expressed mRNA in the absence of chemical substance", "setting": "yeast gene YDR128W", "result": 1.4}, {"measurement": "The level of expressed mRNA in the presence of chemical substance/The level of expressed mRNA in the absence of chemical substance", "setting": "yeast gene YDR202C, incubated two hours with substance", "result": 0.5}, {"measurement": "The level of expressed mRNA in the presence of chemical substance/The level of expressed mRNA in the absence of chemical substance", "setting": "yeast gene YDR210W", "result": 1.0}, {"measurement": "The level of expressed mRNA in the presence of chemical substance/The level of expressed mRNA in the absence of chemical substance", "setting": "yeast gene YDR214W", "result": 1.1}, {"measurement": "The level of expressed mRNA in the presence of chemical substance/The level of expressed mRNA in the absence of chemical substance", "setting": "yeast gene YDR250C", "result": 0.7}, {"measurement": "The level of expressed mRNA in the presence of chemical substance/The level of expressed mRNA in the absence of chemical substance", "setting": "yeast gene YDR278C", "result": 0.7}, {"measurement": "The level of expressed mRNA in the presence of chemical substance/The level of expressed mRNA in the absence of chemical substance", "setting": "yeast gene YDR435C", "result": 0.6}, {"measurement": "The level of expressed mRNA in the presence of chemical substance/The level of expressed mRNA in the absence of chemical substance", "setting": "yeast gene YDR476C", "result": 2.2}, {"measurement": "The level of expressed mRNA in the presence of chemical substance/The level of expressed mRNA in the absence of chemical substance", "setting": "yeast gene YER037W", "result": 0.8}, {"measurement": "The level of expressed mRNA in the presence of chemical substance/The level of expressed mRNA in the absence of chemical substance", "setting": "yeast gene YER106W, incubated two hours with chemical substance", "result": 6.8}, {"measurement": "The level of expressed mRNA in the presence of chemical substance/The level of expressed mRNA in the absence of chemical substance", "setting": "yeast gene YER124C, incubated two hours with substance", "result": 0.5}, {"measurement": "The level of expressed mRNA in the presence of chemical substance/The level of expressed mRNA in the absence of chemical substance", "setting": "yeast gene YER182W, incubated two hours with substance", "result": 0.5}, {"measurement": "The level of expressed mRNA in the presence of chemical substance/The level of expressed mRNA in the absence of chemical substance", "setting": "yeast gene YFL024C", "result": 0.9}, {"measurement": "The level of expressed mRNA in the presence of chemical substance/The level of expressed mRNA in the absence of chemical substance", "setting": "yeast gene YGL121C", "result": 1.6}, {"measurement": "The level of expressed mRNA in the presence of chemical substance/The level of expressed mRNA in the absence of chemical substance", "setting": "yeast gene YGR035C", "result": 0.3}, {"measurement": "The level of expressed mRNA in the presence of chemical substance/The level of expressed mRNA in the absence of chemical substance", "setting": "yeast gene YGR110W", "result": 1.2}, {"measurement": "The level of expressed mRNA in the presence of chemical substance/The level of expressed mRNA in the absence of chemical substance", "setting": "yeast gene YGR139W", "result": 2.3}, {"measurement": "The level of expressed mRNA in the presence of chemical substance/The level of expressed mRNA in the absence of chemical substance", "setting": "yeast gene YGR211W, incubated two hours with substance", "result": 0.5}, {"measurement": "The level of expressed mRNA in the presence of chemical substance/The level of expressed mRNA in the absence of chemical substance", "setting": "yeast gene YGR284C", "result": 3.9}, {"measurement": "The level of expressed mRNA in the presence of chemical substance/The level of expressed mRNA in the absence of chemical substance", "setting": "yeast gene YHR029C", "result": 1.0}, {"measurement": "The level of expressed mRNA in the presence of chemical substance/The level of expressed mRNA in the absence of chemical substance", "setting": "yeast gene YHR054C", "result": 0.8}, {"measurement": "The level of expressed mRNA in the presence of chemical substance/The level of expressed mRNA in the absence of chemical substance", "setting": "yeast gene YHR095W", "result": 0.8}, {"measurement": "The level of expressed mRNA in the presence of chemical substance/The level of expressed mRNA in the absence of chemical substance", "setting": "yeast gene YHR209W", "result": 5.0}, {"measurement": "The level of expressed mRNA in the presence of chemical substance/The level of expressed mRNA in the absence of chemical substance", "setting": "yeast gene YIL117C, incubated two hours with chemical substance", "result": 7.5}, {"measurement": "The level of expressed mRNA in the presence of chemical substance/The level of expressed mRNA in the absence of chemical substance", "setting": "yeast gene YJL037W", "result": 1.6}, {"measurement": "The level of expressed mRNA in the presence of chemical substance/The level of expressed mRNA in the absence of chemical substance", "setting": "yeast gene YJL149W, incubated two hours with chemical substance", "result": 9.0}, {"measurement": "The level of expressed mRNA in the presence of chemical substance/The level of expressed mRNA in the absence of chemical substance", "setting": "yeast gene YJR030C", "result": 0.8}, {"measurement": "The level of expressed mRNA in the presence of chemical substance/The level of expressed mRNA in the absence of chemical substance", "setting": "yeast gene YJR085C, incubated two hours with substance", "result": 0.5}, {"measurement": "The level of expressed mRNA in the presence of chemical substance/The level of expressed mRNA in the absence of chemical substance", "setting": "yeast gene YKL071W", "result": 1.7}, {"measurement": "The level of expressed mRNA in the presence of chemical substance/The level of expressed mRNA in the absence of chemical substance", "setting": "yeast gene YKL107W", "result": 1.7}, {"measurement": "The level of expressed mRNA in the presence of chemical substance/The level of expressed mRNA in the absence of chemical substance", "setting": "yeast gene YKR040C", "result": 1.1}, {"measurement": "The level of expressed mRNA in the presence of chemical substance/The level of expressed mRNA in the absence of chemical substance", "setting": "yeast gene YKR075C", "result": 0.4}, {"measurement": "The level of expressed mRNA in the presence of chemical substance/The level of expressed mRNA in the absence of chemical substance", "setting": "yeast gene YLL056C", "result": 1.5}]}]}
